Measured values as given in the METLIN SMRT retention time set (Domingo-Almenara et al. 2019).

Experiment: gradient 5% acetonitrile 3 min, to 50% in 2 min, to 85% in 15 min, held 3 min, 100 µL/min
Conditions: column: Zorbax Extend-C18 2.1 x 50 mm; eluents: water / acetonitrile, 0.1% formic acid
Procedure, shortened: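 Over 3 months, pure standards in mixtures of ~100 molecules were run by HPLC coupled to a quadrupole time-of-flight mass spectrometer in positive and negative ionization mode. The column was a Zorbax Extend-C18 (2.1 × 50 mm, 1.8 μm) at 100 μL/min, eluted with water and acetonitrile each holding 0.1% formic acid, with 40 μL dead and 900 μL dwell volumes. Retention time was determined from adduct peaks chosen by software and checked manually.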

SMILES	RP-LC retention time [s]
Cc1cccc(NC(=O)N2CCc3c(c(-c4nnc(-c5ccc(F)cc5)o4)nn3C)C2)c1C	854
Cc1noc(C)c1Cc1c(C(=O)NCC23CCC=C2N(C)C(=O)CC3)noc1C (centres undefined)	768
Cc1cc2c(cc1S(=O)(=O)N1CCC(C(=O)NCc3ccccc3Cl)CC1)OCC(=O)N2	789
CCCn1cc(C(=O)NCc2ccccn2)c2cccnc21	595
Cc1sc2ccn(C)c(=O)c2c1C(=O)NCC1CCCCC1	816
Cc1ccc(-c2cn3cccnc3n2)cc1NC(=O)CCC1CCCCC1	789
COc1ccc([N+](=O)[O-])cc1NC(=O)Cc1cccc2ccccc12	967
CN(C)C(=O)c1n[nH]c2c1CN(C(=O)c1cc(F)cc(F)c1)CC2	635
O=C(Nc1ccc(Nc2ccncc2)cc1)c1ccc([N+](=O)[O-])cc1	1250
CCC(CC)C(=O)N1CCC(N2CCN(Cc3ccc(C)cc3)C(=O)C2=O)CC1	756
Cc1cc(=O)n(CC(=O)Nc2ccc3c(c2)OCO3)c(N2CCc3ccccc3C2)n1	742
O=C(COc1cccc(Cl)c1)N1CCCN(C2CCN(CC3CC3)C2=O)CC1 (centres undefined)	574
CC1=C(C(=O)NCCCN2CCN(Cc3ccccc3)CC2)C2(CCCCC2)OC1=O	627
CCOc1ccccc1NC(=O)N1CCN(C(=O)N2C[C@H]3C[C@@H](C2)[C@H]2CCCC(=O)N2C3)CC1	687
CN(CC1CCOCC1)C(=O)Nc1ccc(Cl)cc1F	726
Cc1ccc(-c2nc3cnc(Br)cn3c2Nc2ccc3c(c2)OCO3)cc1	982
CN1CCCC1c1nc(C2CN(S(=O)(=O)Cc3ccccc3F)C2)no1 (centres undefined)	626
COC(=O)[C@H]1[C@H]2C[C@H]3c4[nH]c5ccccc5c4CCN3C[C@H]2CC[C@@H]1O	671
CCNC(=O)C1c2ccccc2C(=O)N(CC(C)C)C1c1cccs1 (centres undefined)	818
Cc1nn(C)c(=O)c2cc(S(=O)(=O)NC(C)c3ccccc3)cn12 (centres undefined)	801
COC(=O)c1cc(OCC(=O)Nc2ccc(F)cc2)c2cc(OC)ccc2n1	810
CCN1CCN(c2cc(C(=O)O)c3cc(NS(=O)(=O)c4cccc(F)c4)ccc3n2)CC1	600
O=C1Nc2ccccc2C12OCC1(CO2)COC2(OC1)C(=O)Nc1ccccc12 (centres undefined)	784

SMILES	RP-LC retention time [s]
O=C(CCn1cnc2cc(-c3noc(-c4cccs4)n3)ccc21)N1CCOCC1	672
CCOc1ccc(NC(=O)c2oc3ccc(Cl)cc3c2C)c2cccnc12	789
Cc1csc(-c2cc(S(=O)(=O)NCC(C)C)cn2CC(=O)N2CCCCC2)n1	926
O=C(NCc1cccnc1)c1ccc(-c2cccs2)nc1	586
CCOc1cn(-c2ccc(F)cc2)nc1C(=O)NCc1cccs1	873
CC(C)(OCc1nn(Cc2ccccc2)c2ccccc12)C(=O)O	937
O=C(Nc1ccc2c(c1)OCCO2)C1CCCN(C(=O)c2cc(-c3ccncc3)n[nH]2)C1 (centres undefined)	584
O=C(NCC(c1cccnc1)c1c[nH]c2ccccc12)Nc1ccc(Br)cc1F (centres undefined)	716
CN(C)C(=O)c1ccc2c(c1)nnn2CCNC(=O)Nc1ccc(Br)cc1F	703
CCc1ccc(NC(=O)N2CCc3cn(CC)c4cccc(c34)C2)cc1	1060
COc1ccccc1C(=O)N1CC(Oc2ccc(-c3nc(-c4ccccc4)no3)cc2)C1	1160
CCOC(=O)Cc1csc(NC(=O)c2cc(=O)c3ccccc3o2)n1	754
CC(C)COc1nc2c(c(=O)n(C)c(=O)n2C)n1C	865
Cc1ccc(S(=O)(=O)Nc2cncc(C(=O)O)c2)cc1	614
Cn1nccc1-c1cccc(-c2noc(-c3cccnc3)n2)c1	876
CCN(CC)c1nc2ccsc2c(=O)n1CCC(=O)N1CCN(c2ccccc2)CC1	919
COc1ccc(-c2cc3c(=O)n(Cc4nc(-c5ccccc5OC)oc4C)ccn3n2)cc1	975
CC1(C)CC(=O)c2cn(-c3ccc(Cl)cc3)c(=O)c(C(=O)Nc3cccnc3)c2C1	763
COc1cccc(C2Cn3nnc(-c4nc(-c5ccc(C)c(C)c5)no4)c3CO2)c1 (centres undefined)	1270
Cc1nc(Cn2cccc2C(=O)Nc2ccc(C)c(F)c2)no1	889
O=C(Nc1ccccc1)[C@@H]1OCC(=O)N(C2CC2)[C@H]1c1ccccc1	775
CC1CCN(C(=O)c2cc(S(=O)(=O)N3CCCC(C(=O)Nc4nccs4)C3)c[nH]2)CC1 (centres undefined)	756

Further lines, results first:

RP-LC retention time [s]	SMILES
828	COc1ccc(NC(=O)N2CCCC(C)(C(=O)NCc3ccccc3)C2)cc1 (centres undefined)
812	CCN1C(=O)C(C)(C(=O)NCc2ccccc2)Oc2cccnc21 (centres undefined)
626	CCNC(=O)c1nn(-c2ccc(OC)c(OC)c2)c(OC)cc1=O
764	Cc1cc(C)c(NC(=O)Cn2cnc3onc(C)c3c2=O)c(C)c1
721	COc1cc(C(=O)N2CCC3(CC2)NC(=O)c2ccc(Cl)cc2N3)cc(OC)c1OC
730	O=C(NCC(=O)N1CC2CN(S(=O)(=O)c3cccc(F)c3)CC(C1)O2)c1ccccc1
790	CC(C)CNC(=O)CN1CCN(Cc2ccc(F)cc2Cl)C1=O
897	Cc1oc(C(C)C)nc1C(=O)NCc1cccs1
946	CCCc1nc(-c2c(C)cc(C)nc2NC(=O)c2cc(C)ccc2C)no1
765	CC1CCN(C(=O)c2cc3c(s2)CCC(C(=O)N2CCOCC2)C3)CC1 (centres undefined)
748	Cc1ccc(C)c(C(=O)N2CCCC(c3nc(CNC(=O)C4CCC4)cs3)C2)c1 (centres undefined)
780	COc1ccc2c(c1)CC(NC(=O)NCc1ccc(OC)cc1OC)CO2 (centres undefined)
658	CCOc1ccc(C(=O)NC2CCN(c3cc(-c4cccs4)[nH]n3)C2)cc1 (centres undefined)
681	COc1ccc(S(=O)(=O)N2CCCC(C(=O)N3CCOCC3)C2)cc1OC (centres undefined)
783	Cc1ccc(F)cc1NS(=O)(=O)c1cc2n(c1)CCN(C(C)C)C2=O
681	COc1ccc2[nH]c(=O)c(CCC(=O)NCCOc3ccccc3OC)cc2c1
843	N#Cc1ccc(C(=O)NCC(=O)N2CCCc3ccccc32)c(F)c1
877	Cc1noc(C)c1S(=O)(=O)N1CCC(C(=O)NCCc2csc(-c3ccccc3)n2)CC1
1140	CCOc1ccc2cccc(NC(=O)c3ccc(S(=O)(=O)N(C)C)cc3)c2n1
725	Cc1ccc(-c2cc(C(=O)NCCCN3CCC(C)CC3)c(C)[nH]2)cc1C
573	CC(C)(C)NC(=O)N1CC(N(Cc2ccncc2)S(C)(=O)=O)C1
690	O=C(NCc1ccc(F)c(Cl)c1)c1cn2c(n1)COCC2

RP-LC retention time [s]	SMILES
587	O=C(CCc1c(-c2ccc(Cl)cc2)nc2ccccn12)N1CCOCC1
884	CC(C)c1ccc(-n2c3c(cc(C(=O)N4CCCCC4)c2=O)C(=O)CCC3)cc1
644	O=c1n(Cc2ccccc2)nc2ccc(S(=O)(=O)N3CCc4ccccc4C3)cn12
950	O=S(=O)(Cc1ccccc1Cl)N(CCc1ccccc1)Cc1ccccn1
1010	O=C(Nc1ccc2c(c1)CN(S(=O)(=O)c1ccccc1)CC2)c1cc(-c2ccco2)on1
670	CC(=O)N1CCc2c(sc(NC(=O)c3cc(=O)c4ccccc4o3)c2C#N)C1
983	Cc1ccc(C)c(NC(=O)CN2C(=O)CCc3cc(S(=O)(=O)N4CCCCC4C)ccc32)c1 (centres undefined)
594	O=C(NCCc1ccccn1)C1CCN(c2cnn(Cc3ccccc3)c(=O)c2)CC1
758	Cc1cccc(N2CCN(S(=O)(=O)c3cc4n(c3)CCCNC4=O)CC2)c1
813	CN1C(=O)Cc2cc(C(=O)N3CCN(c4ccc(Cl)cc4)CC3)ccc21
808	Cc1cc(Cl)ccc1S(=O)(=O)N1CC(Cc2nncn2C2CCCC2)C1
792	CCN1CCCn2cc(S(=O)(=O)NCc3ccccc3C(F)(F)F)cc2C1=O
745	Cc1ccc(C(C)NC(=O)c2ccc(-c3cccnc3)nc2)c(C)c1 (centres undefined)
910	O=C(COc1ccc(Cl)cc1)NCC(=O)N1CCCc2ccccc21
860	CCOC(=O)c1sc2nc(C)cc(C)c2c1N(C(C)=O)C(C)=O
845	CCc1ccccc1NC(=O)CN1C(=O)CCCc2cc(S(=O)(=O)N3CCCC3)ccc21
1160	Cc1ccccc1-c1nc(C2CCN(S(=O)(=O)c3cccc(F)c3)CC2)no1
666	CCn1c(=O)sc2cc(S(=O)(=O)N3CCC(C(=O)Nc4ncccc4C)CC3)ccc21
549	Cc1nc(-c2ccncc2)nc2c1CCC(=O)N2CCCN(C)C
745	COc1ccc(F)cc1S(=O)(=O)N1CCC(C(=O)Nc2cc(C)on2)CC1
1170	Cc1nn(-c2nc(-c3ccc(Cl)cc3)cs2)c(C)c1CC(=O)NCc1ccccc1
581	Cc1[nH]c(=O)[nH]c(=O)c1S(=O)(=O)NC(C)C
